The text below walks through data of ChEMBL document CHEMBL1201862, “PubChem BioAssay data set” (2004).

Holding throughout (format): functional
For test [1], the target named is T1, Kappa-type opioid receptor (Homo sapiens, UniProt P41145). Nature of the test: SAR analysis of small molecule agonists of the kappa opioid receptor via a luminescent beta-arrestin assay - Set 2. [Related pubchem assays (depositor defined):AID1777, AID1785, AID1786, AID1966, AID2133, AID2136, AID2284, AID449737].
In test [2] the target is T2, Delta-type opioid receptor (Homo sapiens, UniProt P41143). The experiment in a line: SAR Analysis of Agonists of the DOR Receptor using an Image-Based Assay - Set 2. [Related pubchem assays (depositor defined):AID1777, AID1785, AID1786, AID1966, AID2133, AID2136, AID2284, AID2285, AID2370].
For test [3], the target named is T3, Mu-type opioid receptor (Homo sapiens, UniProt P35372). The experiment in a line: SAR Analysis of Agonists of the MOR Receptor using an Image-Based Assay - Set 2. [Related pubchem assays (depositor defined):AID1777, AID1785, AID1786, AID1966, AID2133, AID2136, AID2284, AID2285, AID2352].
Test [4] concerns the target T2, Delta-type opioid receptor. Nature of the test: SAR Analysis of Antagonists of the DOR Receptor using an Image-Based Assay - Set 2. [Related pubchem assays (depositor defined):AID1777, AID1785, AID1786, AID1966, AID2133, AID2136, AID2284, AID2285, AID2357].
Test [5] addresses T1, Kappa-type opioid receptor. Nature of the test: SAR analysis of Agonists of the Kappa Opioid Receptor (KOR) using an Image-Based Assay - Set 2. [Related pubchem assays (depositor defined):AID1777, AID1786, AID1966, AID2133, AID2136, AID2284, AID2285, AID2359].
The target in test [6] is T3, Mu-type opioid receptor. The experiment in a line: SAR Analysis of Antagonists of the MOR Receptor using an Image-Based Assay - Set 2. [Related pubchem assays (depositor defined):AID1777, AID1785, AID1786, AID1966, AID2133, AID2136, AID2284, AID2285, AID2420].
The target in test [7] is T1, Kappa-type opioid receptor. Nature of the test: SAR analysis of Antagonists of the Kappa Opioid Receptor (KOR) using an Image-Based Assay - Set 2. [Related pubchem assays (depositor defined):AID1777, AID1785, AID1786, AID1966, AID2133, AID2136, AID2284, AID2285, AID2348].
Test [8] concerns the target T4, Alkaline phosphatase, tissue-nonspecific isozyme (Homo sapiens, UniProt P05186).
T4 sequence (P05186 whole entry): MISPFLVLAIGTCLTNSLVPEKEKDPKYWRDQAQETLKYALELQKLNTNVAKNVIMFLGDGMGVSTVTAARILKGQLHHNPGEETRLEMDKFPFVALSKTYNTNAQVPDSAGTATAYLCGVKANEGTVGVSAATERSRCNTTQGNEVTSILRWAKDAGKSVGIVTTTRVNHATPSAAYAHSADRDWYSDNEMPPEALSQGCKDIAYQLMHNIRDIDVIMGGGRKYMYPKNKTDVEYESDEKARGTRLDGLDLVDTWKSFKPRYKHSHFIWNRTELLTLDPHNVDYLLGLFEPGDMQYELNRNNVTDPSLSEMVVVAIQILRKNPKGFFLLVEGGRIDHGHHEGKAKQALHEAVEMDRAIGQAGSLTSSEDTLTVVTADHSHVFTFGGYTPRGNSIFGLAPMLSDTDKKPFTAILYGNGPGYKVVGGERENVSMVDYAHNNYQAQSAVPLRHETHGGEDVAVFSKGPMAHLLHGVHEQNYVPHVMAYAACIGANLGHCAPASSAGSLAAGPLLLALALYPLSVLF
The experiment in a line: TNAP enzyme inhibition by screening hits, dose response, selectivity assay for mouse IAP inhibitor project, biochemical, human TNAP, uHTS hits (AID 488906).

The target in test [9] is T5, Heat shock factor protein 1 (Mus musculus, UniProt P38532).
T5 sequence (P38532 whole entry): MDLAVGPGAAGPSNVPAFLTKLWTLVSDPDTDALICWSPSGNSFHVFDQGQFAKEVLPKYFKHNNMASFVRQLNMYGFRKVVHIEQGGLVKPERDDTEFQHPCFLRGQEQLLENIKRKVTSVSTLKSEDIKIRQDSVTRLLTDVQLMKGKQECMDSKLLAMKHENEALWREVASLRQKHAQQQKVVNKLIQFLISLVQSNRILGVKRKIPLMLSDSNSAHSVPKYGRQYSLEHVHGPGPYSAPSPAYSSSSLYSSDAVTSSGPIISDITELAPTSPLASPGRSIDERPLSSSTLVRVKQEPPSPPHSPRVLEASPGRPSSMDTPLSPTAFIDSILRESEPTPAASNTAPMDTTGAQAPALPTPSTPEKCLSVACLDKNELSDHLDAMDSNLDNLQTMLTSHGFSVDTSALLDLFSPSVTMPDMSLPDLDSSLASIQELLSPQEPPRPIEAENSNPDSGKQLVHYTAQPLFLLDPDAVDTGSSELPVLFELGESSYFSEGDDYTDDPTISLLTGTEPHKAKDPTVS
Nature of the test: inhibition of MG132-induced HSE-luciferase signal, confirmation, cell-based, NIH3T3, luminescence, dose retest (AID 2382).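 Note: NIH3T3 fibroblasts with HSF1-driven luciferase reporter stressed by proteasome inhibitor MG132; luminescence from HSF1-driven luciferase expression after 8 hours of MG132 stress.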

Test [10] deals with Intestinal-type alkaline phosphatase (Homo sapiens, UniProt P09923). Nature of the test: inhibition of human intestinal alkaline phosphatase – biochemical, dose response (AID 488876).
The target of test [11] is Intestinal-type alkaline phosphatase (Mus musculus, UniProt P24822). The experiment in a line: PubChem AID 488785.
Test [12] addresses Voltage-dependent T-type calcium channel subunit alpha-1H (Homo sapiens, UniProt O95180). The experiment in a line: Cav3.2 T-type channel blockers, cell-based, SynthLib3 library, HEK293 Cav3.2, fluorescence (AID 493041).

Calls of active or inactive are those of the source. Unless noted, no cut-off for these calls is given here.

T1 sequence (P41145 whole entry): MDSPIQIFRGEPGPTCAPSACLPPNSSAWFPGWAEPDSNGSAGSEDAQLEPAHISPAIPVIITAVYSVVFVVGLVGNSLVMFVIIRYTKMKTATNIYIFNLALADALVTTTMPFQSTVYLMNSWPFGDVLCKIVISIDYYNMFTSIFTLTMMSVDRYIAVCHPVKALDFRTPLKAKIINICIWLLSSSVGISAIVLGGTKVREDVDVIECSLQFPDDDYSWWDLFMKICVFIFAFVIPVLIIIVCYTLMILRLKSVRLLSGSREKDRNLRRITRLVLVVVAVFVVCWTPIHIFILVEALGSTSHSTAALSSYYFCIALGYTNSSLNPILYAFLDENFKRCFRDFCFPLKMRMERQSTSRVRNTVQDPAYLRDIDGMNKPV
T3 sequence (P35372 whole entry): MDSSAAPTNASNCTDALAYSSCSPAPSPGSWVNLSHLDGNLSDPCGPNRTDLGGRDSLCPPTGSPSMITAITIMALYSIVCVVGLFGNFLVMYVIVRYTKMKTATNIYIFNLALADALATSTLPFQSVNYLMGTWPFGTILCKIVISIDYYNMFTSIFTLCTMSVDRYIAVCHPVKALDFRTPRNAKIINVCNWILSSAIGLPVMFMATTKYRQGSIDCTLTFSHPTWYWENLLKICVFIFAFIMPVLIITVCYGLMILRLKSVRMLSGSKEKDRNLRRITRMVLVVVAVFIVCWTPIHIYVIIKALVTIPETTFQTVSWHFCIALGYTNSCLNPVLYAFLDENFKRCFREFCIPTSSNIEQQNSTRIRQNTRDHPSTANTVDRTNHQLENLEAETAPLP
T2 sequence (P41143 whole entry): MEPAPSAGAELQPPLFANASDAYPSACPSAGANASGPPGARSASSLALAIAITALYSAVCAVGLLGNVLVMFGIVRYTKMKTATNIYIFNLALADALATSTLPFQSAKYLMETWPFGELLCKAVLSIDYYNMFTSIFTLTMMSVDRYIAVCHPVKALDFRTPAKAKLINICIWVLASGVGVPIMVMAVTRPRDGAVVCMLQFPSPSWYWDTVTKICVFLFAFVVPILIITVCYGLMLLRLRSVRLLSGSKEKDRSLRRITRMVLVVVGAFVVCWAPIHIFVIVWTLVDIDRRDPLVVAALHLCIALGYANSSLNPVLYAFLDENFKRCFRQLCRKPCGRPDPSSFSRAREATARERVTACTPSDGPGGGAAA
Intestinal-type alkaline phosphatase (Mus musculus, UniProt P24822), sequence (P24822 whole entry): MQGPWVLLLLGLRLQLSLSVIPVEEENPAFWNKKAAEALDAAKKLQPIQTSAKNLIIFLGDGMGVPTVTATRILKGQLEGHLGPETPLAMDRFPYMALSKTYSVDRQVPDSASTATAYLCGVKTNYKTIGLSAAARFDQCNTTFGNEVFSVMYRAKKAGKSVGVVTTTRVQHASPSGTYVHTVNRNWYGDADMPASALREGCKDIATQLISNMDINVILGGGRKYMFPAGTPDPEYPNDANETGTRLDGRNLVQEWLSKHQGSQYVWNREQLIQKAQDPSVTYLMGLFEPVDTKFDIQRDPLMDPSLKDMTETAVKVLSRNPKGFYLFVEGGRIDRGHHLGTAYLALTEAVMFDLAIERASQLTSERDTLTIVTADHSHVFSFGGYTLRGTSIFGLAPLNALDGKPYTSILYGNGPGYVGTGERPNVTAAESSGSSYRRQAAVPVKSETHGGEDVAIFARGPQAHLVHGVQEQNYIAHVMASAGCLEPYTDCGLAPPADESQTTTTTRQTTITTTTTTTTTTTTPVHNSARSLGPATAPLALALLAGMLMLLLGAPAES
Voltage-dependent T-type calcium channel subunit alpha-1H, sequence (O95180 whole entry): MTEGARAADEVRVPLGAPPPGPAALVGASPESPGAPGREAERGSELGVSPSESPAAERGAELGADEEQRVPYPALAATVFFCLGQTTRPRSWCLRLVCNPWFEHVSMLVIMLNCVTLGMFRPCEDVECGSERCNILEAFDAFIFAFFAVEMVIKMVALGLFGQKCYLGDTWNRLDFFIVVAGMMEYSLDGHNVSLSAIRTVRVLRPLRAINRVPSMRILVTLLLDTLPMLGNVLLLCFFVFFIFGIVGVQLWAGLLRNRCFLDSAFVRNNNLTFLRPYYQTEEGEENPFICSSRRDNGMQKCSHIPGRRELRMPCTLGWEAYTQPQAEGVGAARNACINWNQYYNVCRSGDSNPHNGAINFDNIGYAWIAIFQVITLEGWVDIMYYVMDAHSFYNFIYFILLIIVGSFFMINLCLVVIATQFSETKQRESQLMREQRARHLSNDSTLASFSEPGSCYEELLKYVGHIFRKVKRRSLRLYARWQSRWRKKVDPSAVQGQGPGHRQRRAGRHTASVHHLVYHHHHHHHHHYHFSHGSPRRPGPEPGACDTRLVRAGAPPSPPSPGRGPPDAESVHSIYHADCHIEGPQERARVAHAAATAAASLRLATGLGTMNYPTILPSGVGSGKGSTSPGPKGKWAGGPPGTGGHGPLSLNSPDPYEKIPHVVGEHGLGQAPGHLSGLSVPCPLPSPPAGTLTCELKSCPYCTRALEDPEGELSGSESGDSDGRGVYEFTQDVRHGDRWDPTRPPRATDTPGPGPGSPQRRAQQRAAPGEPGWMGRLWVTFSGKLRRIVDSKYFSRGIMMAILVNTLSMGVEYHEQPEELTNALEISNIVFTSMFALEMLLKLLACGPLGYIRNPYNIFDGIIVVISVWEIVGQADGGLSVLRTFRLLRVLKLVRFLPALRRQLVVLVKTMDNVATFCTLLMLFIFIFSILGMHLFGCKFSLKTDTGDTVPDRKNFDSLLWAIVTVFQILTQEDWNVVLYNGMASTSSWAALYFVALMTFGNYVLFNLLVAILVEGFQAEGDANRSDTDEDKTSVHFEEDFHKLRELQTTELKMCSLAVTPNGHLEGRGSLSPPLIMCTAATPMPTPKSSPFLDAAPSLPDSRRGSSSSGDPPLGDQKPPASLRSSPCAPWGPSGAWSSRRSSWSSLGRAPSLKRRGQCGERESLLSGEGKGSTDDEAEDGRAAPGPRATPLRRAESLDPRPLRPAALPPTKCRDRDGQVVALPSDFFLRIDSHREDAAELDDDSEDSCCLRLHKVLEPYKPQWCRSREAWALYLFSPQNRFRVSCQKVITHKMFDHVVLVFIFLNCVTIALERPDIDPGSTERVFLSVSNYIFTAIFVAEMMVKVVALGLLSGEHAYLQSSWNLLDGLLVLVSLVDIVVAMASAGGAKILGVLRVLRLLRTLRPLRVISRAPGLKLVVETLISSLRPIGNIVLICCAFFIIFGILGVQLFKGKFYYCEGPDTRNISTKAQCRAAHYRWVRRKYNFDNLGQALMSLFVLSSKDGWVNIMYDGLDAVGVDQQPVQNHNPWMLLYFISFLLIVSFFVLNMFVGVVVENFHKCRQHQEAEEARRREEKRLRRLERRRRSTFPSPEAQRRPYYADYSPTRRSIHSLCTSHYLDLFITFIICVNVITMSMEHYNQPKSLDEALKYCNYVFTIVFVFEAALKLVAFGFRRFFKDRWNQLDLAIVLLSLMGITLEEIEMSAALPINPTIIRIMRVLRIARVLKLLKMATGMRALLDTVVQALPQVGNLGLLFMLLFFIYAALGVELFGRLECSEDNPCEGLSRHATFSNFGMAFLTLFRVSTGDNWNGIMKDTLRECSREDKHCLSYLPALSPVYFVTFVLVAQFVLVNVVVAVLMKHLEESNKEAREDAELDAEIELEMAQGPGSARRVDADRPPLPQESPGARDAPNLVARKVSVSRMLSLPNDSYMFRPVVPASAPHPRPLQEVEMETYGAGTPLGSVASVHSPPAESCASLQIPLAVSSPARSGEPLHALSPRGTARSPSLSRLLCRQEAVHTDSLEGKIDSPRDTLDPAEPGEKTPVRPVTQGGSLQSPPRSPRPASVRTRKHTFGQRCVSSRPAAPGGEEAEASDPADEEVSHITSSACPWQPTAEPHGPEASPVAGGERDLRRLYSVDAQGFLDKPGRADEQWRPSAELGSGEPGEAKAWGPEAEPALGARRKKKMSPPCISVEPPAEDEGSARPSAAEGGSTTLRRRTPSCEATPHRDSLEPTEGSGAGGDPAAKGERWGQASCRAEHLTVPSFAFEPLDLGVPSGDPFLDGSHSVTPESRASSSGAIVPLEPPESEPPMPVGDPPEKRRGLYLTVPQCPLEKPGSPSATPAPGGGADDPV
Intestinal-type alkaline phosphatase (Homo sapiens, UniProt P09923), sequence (P09923 whole entry): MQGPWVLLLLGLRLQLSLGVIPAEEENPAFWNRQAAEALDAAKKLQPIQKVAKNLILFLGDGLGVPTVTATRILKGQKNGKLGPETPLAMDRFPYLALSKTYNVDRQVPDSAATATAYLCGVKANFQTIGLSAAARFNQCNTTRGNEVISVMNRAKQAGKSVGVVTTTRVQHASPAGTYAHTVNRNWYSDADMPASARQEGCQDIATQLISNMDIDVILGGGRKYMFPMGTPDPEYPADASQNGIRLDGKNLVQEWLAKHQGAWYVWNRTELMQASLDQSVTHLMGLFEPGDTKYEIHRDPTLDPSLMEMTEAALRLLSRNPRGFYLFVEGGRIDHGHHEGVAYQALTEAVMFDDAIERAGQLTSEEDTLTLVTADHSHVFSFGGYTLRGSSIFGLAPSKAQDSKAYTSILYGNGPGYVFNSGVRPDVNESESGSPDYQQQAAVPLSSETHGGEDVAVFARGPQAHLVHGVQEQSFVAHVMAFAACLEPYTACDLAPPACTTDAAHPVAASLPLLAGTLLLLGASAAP

For the compound `c1ccc(CSc2nnc(-c3ccccn3)n2Cc2cccs2)cc1`, the EC50 in [1] is 13.9 µM (inactive); in test [2], > 32 µM (inactive); in [3], > 32 µM (inactive); in test [5], 23.5 µM (inactive). Moreover, the IC50 in test [4], in [6] and in test [7] was > 32 µM (inactive) each time.

Turning to `CCn1cc(CN2CCC(C(=O)Nc3cccc(-c4cccc(Cl)c4)c3)CC2)c(C)n1`, the figures for the IC50 in test [8], in test [10] and in test [11] were > 100 µM (inactive), > 100 µM (inactive) and 12.8 µM (active), respectively. Further, in test [9], the EC50 was > 195 µM (not active).

As for `CC(C)(C)CCN1C[C@@H]2C(CNC(=O)c3cc(Cl)cc(Cl)c3)[C@@H]2C1` (some centres not stated), the EC50 in [12] was 0.17 µM (active).
